Experimental data taken from patent EP4483954A1 (Masarykova Univerzita, priority 2023, dated 2025).

Target: T1, TRB2(h) (Homo sapiens, UniProt Q92519)
T1 construct: purchased Eurofins (KinaseProfiler)
T1 sequence (Q92519 1-343): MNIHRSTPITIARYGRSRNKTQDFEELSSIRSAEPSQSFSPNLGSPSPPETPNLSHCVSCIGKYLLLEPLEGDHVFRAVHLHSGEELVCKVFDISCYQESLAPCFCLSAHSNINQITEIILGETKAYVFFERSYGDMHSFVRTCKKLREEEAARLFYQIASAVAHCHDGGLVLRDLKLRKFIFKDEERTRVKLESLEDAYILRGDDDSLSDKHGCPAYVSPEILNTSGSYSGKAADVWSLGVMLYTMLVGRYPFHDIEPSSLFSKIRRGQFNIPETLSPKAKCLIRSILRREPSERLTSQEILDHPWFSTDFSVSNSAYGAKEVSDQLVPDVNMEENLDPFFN
Assay: radiometric kinase assay (KinaseProfiler, Eurofins), TRB2
Format: biochemical
Conditions: in vitro radiometric kinase assay, tested at 1 nM to 10 000 nM, no pre-incubation; read-out: inhibitory activities (IC50 values) TRB2
Description: The compounds were profiled in the radiometric assays (KinaseProfiler, Eurofins).
Briefly, kinases were diluted in the buffer shown below prior to addition to the reaction mix: • CDKL3, TAF1L: 20 mM Tris/HCl pH 8.5, 0.2 mM EDTA, 0.1% β-mercaptoethanol, 0.01% Brij-35, 5% glycerol, 1 mg/ml BSA; • Haspin: 15 mM MOPS, 0.75 mM EDTA, 0.0075% Brij-35, 3.75% Glycerol, 150 mM NaCl, 0.1% β-mercaptoethanol, 1 mg/mLBSA; • CDKL4, CLK2, PIM1, TRB2: […], 1 mM EDTA, 0.01% Brij-35, 5% Glycerol, 0.1% β-mercaptoethanol, 1 mg/mL BSA.
All compounds were prepared to 50x final assay concentration in 100% DMSO. This working stock of the compound was added to the assay well as the first component in the reaction, followed by the remaining components as detailed in the general assay protocols below. There was no pre-incubation step between the compound and the kinase prior to initiation of the reaction.
TRB2(h) was incubated with 8 mM MOPS pH 7.0, 0.2 mM EDTA, 250 µM RRRFRPASPLRGPPK (SEQ ID NO. 1), 10 mM magnesium acetate and γ-^33P-ATP (specific activity and concentration as required). The reaction was initiated by the addition of the Mg/ATP mix. After incubation for 120 minutes at room temperature, the reaction was stopped by the addition of phosphoric acid to a concentration of 0.5%. An aliquot of the stopped reaction was spotted onto a filter and washed four times for 4 minutes in 0.425% phosphoric acid and once in methanol prior to drying and scintillation counting.
Kinase activity data were expressed as the percent remaining kinase activity in tested samples compared to the vehicle (DMSO) reactions. The compounds were tested at the following concentrations: 1 nM, 3 nM, 10 nM, 30 nM, 100 nM, 300 nM, 1000 nM, 3000 nM, and 10 000 nM; IC50 values and curve fits were then obtained.

| IC50 [nM] | SMILES |
| --- | --- |
| 500 to 3000 | Cn1cc(-c2ccc3scc(-c4cnn(C)c4)c3n2)cn1 [Preparative Example 63, 3,5-bis(1-methyl-1H-pyrazol-4-yl)thieno[3,2-b]pyridine] |
| 500 to 3000 | CCn1cc(-c2ccc3scc(-c4ccncc4)c3n2)cn1 [Preparative Example 77, 5-(1-ethyl-1H-pyrazol-4-yl)-3-(pyridin-4-yl)thieno[3,2-b]pyridine] |
| 500 to 3000 | Cn1cc(-c2ccc3scc(-c4ccncc4)c3n2)cn1 [Preparative Example 13, 5-(1-methyl-1H-pyrazol-4-yl)-3-(pyridin-4-yl)thieno[3,2-b]pyridine] |
| 500 to 3000 | Cn1cc(-c2ccc3scc(-c4ccncc4)c3n2)c(N)n1 [Preparative Example 84, 1-methyl-4-(3-(pyridin-4-yl)thieno[3,2-b]pyridin-5-yl)-1H-pyrazol-3-amine] |
| 500 to 3000 | Cn1ccc(-c2cc(Cl)c3scc(-c4ccncc4)c3n2)n1 [Preparative Example 163, 7-chloro-5-(1-methyl-1H-pyrazol-3-yl)-3-(pyridin-4-yl)thieno[3,2-b]pyridine] |
| 500 to 3000 | Cn1cc(-c2ccc3scc(-c4ccncc4)c3n2)nn1 [Preparative Example 93, 5-(1-methyl-1H-1,2,3-triazol-4-yl)-3-(pyridin-4-yl)thieno[3,2-b]pyridine] |
| 500 to 3000 | Cc1cc(-c2csc3ccc(-c4cnn(C)c4)nc23)cc(C)n1 [Preparative Example 30, 3-(2,6-dimethylpyridin-4-yl)-5-(1-methyl-1H-pyrazol-4-yl)thieno-[3,2-b]pyridine] |
| 500 to 3000 | Cn1ncc(-c2ccc3scc(-c4ccncc4)c3n2)n1 [Preparative Example 94, 5-(2-methyl-2H-1,2,3-triazol-4-yl)-3-(pyridin-4-yl)thieno[3,2-b]pyridine] |
| 3000 to 10000 | c1ccc(-c2csc3ccc(-c4ccoc4)nc23)cc1 [Preparative Example 123, 5-(furan-3-yl)-3-phenylthieno[3,2-b]pyridine] |
| 100 to 499 | Cn1cc(-c2ccc3scc(-c4cncs4)c3n2)cn1 [Preparative Example 69, 5-(1-methyl-1H-pyrazol-4-yl)-3-(thiazol-5-yl)thieno[3,2-b]pyridine] |
| 100 to 499 | Cn1cc(-c2ccc3scc(-c4ccnc(F)c4)c3n2)cn1 [Preparative Example 22, 3-(2-fluoropyridin-4-yl)-5-(1-methyl-1H-pyrazol-4-yl)thieno[3,2-b]pyridine] |
| 100 to 499 | Cn1cc(-c2ccc3scc(-c4ccncc4F)c3n2)cn1 [Preparative Example 36, 3-(3-fluoropyridin-4-yl)-5-(1-methyl-1H-pyrazol-4-yl)thieno[3,2-b]pyridine] |
| 20 to 99 | Cn1cc(-c2ccc3scc(-c4ccns4)c3n2)cn1 [Preparative Example 67, 3-(isothiazol-5-yl)-5-(1-methyl-1H-pyrazol-4-yl)thieno[3,2-b]pyridine] |
| 3000 to 10000 | Cn1cc(-c2ccc3scc(-c4ccncc4C#N)c3n2)cn1 [Preparative Example 34, 4-(5-(1-methyl-1H-pyrazol-4-yl)thieno[3,2-b]pyridin-3-yl)nicotino-nitrile] |
| 500 to 3000 | COc1cc(-c2ccn(C)n2)nc2c(-c3ccncc3)csc12 [Preparative Example 165, 7-methoxy-5-(1-methyl-1H-pyrazol-3-yl)-3-(pyridin-4-yl)thieno[3,2-b]pyridine] |
| 500 to 3000 | Cn1cc(-c2ccc3scc(-c4ccnc(CN)c4)c3n2)cn1 [Preparative Example 28, (4-(5-(1-methyl-1H-pyrazol-4-yl)thieno[3,2-b]pyridin-3-yl)pyridin-2-yl)methanamine] |
| 100 to 499 | Cn1ncc(-c2ccc3scc(-c4ccncc4)c3n2)c1CC1CC1 [Preparative Example 82, 5-(5-(cyclopropylmethyl)-1-methyl-1H-pyrazol-4-yl)-3-(pyridin-4-yl)thieno[3,2-b]pyridine] |

| IC50 [nM] | SMILES |
| --- | --- |
| 500 to 3000 | Cn1cc(-c2ccc3scc(-c4ccccc4)c3n2)cn1 [Preparative Example 2, 5-(1-methyl-1H-pyrazol-4-yl)-3-phenylthieno[3,2-b]pyridine] |
| 500 to 3000 | CC(C)n1cc(-c2ccc3scc(-c4ccncc4)c3n2)cn1 [Preparative Example 79, 5-(1-isopropyl-1H-pyrazol-4-yl)-3-(pyridin-4-yl)thieno[3,2-b]pyridine] |
| 3000 to 10000 | Cn1ccc(-c2ccc3scc(-c4ccncc4)c3n2)n1 [Preparative Example 86, 5-(1-methyl-1H-pyrazol-3-yl)-3-(pyridin-4-yl)thieno[3,2-b]pyridine] |
| 100 to 499 | Cn1ccc(Nc2ccc3scc(-c4ccncc4)c3n2)n1 [Preparative Example 99, N-(1-methyl-1H-pyrazol-3-yl)-3-(pyridin-4-yl)thieno[3,2-b]pyridin-5-amine] |
| 100 to 499 | Cc1cc(-c2csc3ccc(-c4cnn(C)c4)nc23)ccn1 [Preparative Example 15, 5-(1-methyl-1H-pyrazol-4-yl)-3-(2-methylpyridin-4-yl)-thieno[3,2-b]pyridine] |
| 3000 to 10000 | Cc1cnccc1-c1csc2ccc(-c3cnn(C)c3)nc12 [Preparative Example 32, 5-(1-methyl-1H-pyrazol-4-yl)-3-(3-methylpyridin-4-yl)thieno[3,2-b]pyridine] |
| 500 to 3000 | Cn1cc(-c2csc3ccc(Oc4ccccc4)nc23)cn1 [Preparative Example 139, 3-(1-methyl-1H-pyrazol-4-yl)-5-phenoxythieno[3,2-b]pyridine] |
| 500 to 3000 | Cn1cncc1-c1ccc2scc(-c3ccncc3)c2n1 [Preparative Example 91, 5-(1-methyl-1H-imidazol-5-yl)-3-(pyridin-4-yl)thieno[3,2-b]pyridine] |
| 3000 to 10000 | Cc1cc2scc(-c3ccncc3)c2nc1-c1ccn(C)n1 [Preparative Example 151, 6-methyl-5-(1-methyl-1H-pyrazol-3-yl)-3-(pyridin-4-yl)thieno[3,2-b]pyridine] |
| 20 to 99 | Cn1cc(-c2ccc3scc(-c4ccc5ncnn5c4)c3n2)cn1 [Preparative Example 53, 3-([1,2,4]-triazolo[1,5-a]pyridin-6-yl)-5-(1-methyl-1H-pyrazol-4-yl)thieno[3,2-b]pyridine] |
| 500 to 3000 | COc1cc(-c2csc3ccc(-c4cnn(C)c4)nc23)ccn1 [Preparative Example 17, 3-(2-methoxypyridin-4-yl)-5-(1-methyl-1H-pyrazol-4-yl)thieno[3.2-b]pyridine] |
| 500 to 3000 | Cc1cc(-c2cnn(C)c2)nc2c(-c3ccncc3)csc12 [Preparative Example 157, 7-methyl-5-(1-methyl-1H-pyrazol-4-yl)-3-(pyridin-4-yl)thieno[3,2-b]pyridine] |
| 500 to 3000 | Cn1cc(-c2ccc3scc(-c4cccnc4)c3n2)cn1 [Preparative Example 11, 5-(1-methyl-1H-pyrazol-4-yl)-3-(pyridin-3-yl)thieno[3,2-b]pyridine] |
| 500 to 3000 | Cc1nn(C)c(C)c1-c1ccc2scc(-c3ccncc3)c2n1 [Preparative Example 85, 3-(pyridin-4-yl)-5-(1,3,5-trimethyl-1H-pyrazol-4-yl)thieno[3,2-b]pyridine] |
| 500 to 3000 | Cc1cc2scc(-c3ccncc3)c2nc1-c1cnn(C)c1 [Preparative Example 150, 6-methyl-5-(1-methyl-1H-pyrazol-4-yl)-3-(pyridin-4-yl)thieno[3,2-b]pyridine] |
| 3000 to 10000 | c1ccc(Cn2cc(-c3ccc4scc(-c5ccncc5)c4n3)cn2)cc1 [Preparative Example 81, 5-(1-benzyl-1H-pyrazol-4-yl)-3-(pyridin-4-yl)thieno[3,2-b]pyridine] |
| 100 to 499 | Cn1cc(-c2cc(Cl)c3scc(-c4ccncc4)c3n2)cn1 [Preparative Example 162, 7-chloro-5-(1-methyl-1H-pyrazol-4-yl)-3-(pyridin-4-yl)thieno[3,2-b]pyridine] |

| SMILES | IC50 [nM] |
| --- | --- |
| Cn1cc(-c2ccc3scc(C4=CCNCC4)c3n2)cn1 [Preparative Example 9, 5-(1-methyl-1H-pyrazol-4-yl)-3-(1,2,3,6-tetrahydropyridin-4-yl)-thieno[3.2-b]pyridine] | 3000 to 10000 |
| Cn1cc(-c2ccc3scc(C(O)c4ccccc4)c3n2)cn1 (stereo not drawn) [Preparative Example 74] | 500 to 3000 |
